Results taken from patent publication US11203601B2, “Tricyclic compounds as glycogen synthase kinase 3 (GSK3) inhibitors and uses thereof” (The Broad Institute, Inc., priority 2017, dated 2021).
pIC50: −log10 of the molar value.

Legend:
[1] = biological target: FMS (Homo sapiens (Human), UniProt P07333); assay: Carna kinome panel; format: biochemical; conditions: read-out: % Inhibition at 10 μM of the test compound
[2] = biological target: FGFR4 (Homo sapiens (Human), UniProt P22455); assay: Carna kinome panel; format: biochemical; conditions: read-out: % Inhibition at 10 μM of the test compound
[3] = biological target: CDK7/CycH/MAT1 (Homo sapiens (Human), UniProt P50613); assay: Carna kinome panel; format: biochemical; conditions: read-out: % Inhibition at 10 μM of the test compound
[4] = biological target: ABL(E255K) (Homo sapiens (Human), UniProt P00519, E255K); assay: Carna kinome panel; format: biochemical; conditions: read-out: % Inhibition at 10 μM of the test compound
[5] = biological target: PAK2 (Homo sapiens (Human), UniProt Q13177); assay: Carna kinome panel; format: biochemical; conditions: read-out: % Inhibition at 10 μM of the test compound
Sequence of PAK2 (Q13177 whole entry): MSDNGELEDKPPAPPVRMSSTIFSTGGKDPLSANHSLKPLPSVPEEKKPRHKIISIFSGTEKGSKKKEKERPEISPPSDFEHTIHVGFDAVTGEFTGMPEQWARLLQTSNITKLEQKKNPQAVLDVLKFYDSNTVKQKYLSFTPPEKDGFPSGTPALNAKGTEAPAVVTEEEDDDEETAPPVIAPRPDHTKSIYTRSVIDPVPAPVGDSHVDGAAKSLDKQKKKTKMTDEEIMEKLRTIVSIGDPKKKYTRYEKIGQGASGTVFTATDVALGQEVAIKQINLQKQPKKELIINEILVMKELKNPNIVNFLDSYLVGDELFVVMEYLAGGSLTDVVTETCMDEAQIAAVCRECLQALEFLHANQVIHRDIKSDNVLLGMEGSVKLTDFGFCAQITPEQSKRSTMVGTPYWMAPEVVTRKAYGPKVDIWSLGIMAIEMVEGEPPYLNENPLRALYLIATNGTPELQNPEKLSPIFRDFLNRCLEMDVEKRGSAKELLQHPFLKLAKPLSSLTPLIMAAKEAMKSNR

[6] = biological target: GSK3α (Homo sapiens (Human), UniProt P49840); assay: biochemical
Sequence of GSK3α (P49840 whole entry): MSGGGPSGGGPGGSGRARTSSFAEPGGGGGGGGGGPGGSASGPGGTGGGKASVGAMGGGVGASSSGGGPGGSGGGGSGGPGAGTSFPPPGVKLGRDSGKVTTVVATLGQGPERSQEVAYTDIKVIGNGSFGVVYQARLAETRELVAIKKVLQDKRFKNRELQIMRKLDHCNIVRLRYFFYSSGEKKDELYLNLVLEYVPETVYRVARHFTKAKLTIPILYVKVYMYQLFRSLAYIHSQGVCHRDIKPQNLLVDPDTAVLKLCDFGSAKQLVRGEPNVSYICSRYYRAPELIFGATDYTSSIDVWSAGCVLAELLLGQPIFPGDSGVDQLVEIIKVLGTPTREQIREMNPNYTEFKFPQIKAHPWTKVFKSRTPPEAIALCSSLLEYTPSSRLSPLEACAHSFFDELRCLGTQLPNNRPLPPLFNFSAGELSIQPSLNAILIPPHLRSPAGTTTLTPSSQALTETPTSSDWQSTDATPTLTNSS
Method: A selection of compounds was screened against a selected panel of kinases based on single point inhibitory ability to determine absolute inhibitory activity, leading to selectivity measurements. The assay utilized was identical to that of the single point inhibitory activity determination (MSA) but run in dose response. A solution of 4× inhibitor (5 μL), 4× substrate/ATP Metal solution (5 μL), and 2× Kinase solution (10 μL) was prepared with assay buffer (20 mM HEPES, 0.01% Triton X-100, 2 mM DTT, pH 7.5) and mixed/incubated in 384 well plates for 1 or 5 hours depending on the kinase, at room temperature. A solution of termination buffer (QuickScout Screening assist MSA; Carna Biosciences) (60 μL) was added to each well. The entire reaction mixture was then applied to a LabChip3000 system (Caliper Life Science) and the product and substrate peptide peaks were separated and quantified.
Briefly, a selection of compounds was screened against a panel of kinases at a single concentration of 10 μM. […] The entire reaction mixture was then applied to a LabChip3000 system (Caliper Life Science), and the product and substrate peptide peaks were separated and quantified. […] The entire reaction mixture was then applied to a LabChip3000 system (Caliper Life Science), and the product and substrate peptide peaks were separated and quantified.

[7] = biological target: CK1γ3 (Homo sapiens (Human), UniProt Q9Y6M4); assay: Carna kinome panel; format: biochemical; conditions: read-out: % Inhibition at 10 μM of the test compound
[8] = test system: RAF1_Cascade; assay: Carna kinome panel; format: biochemical
Method: (§1) Briefly, a selection of compounds was screened against a panel of kinases at a single concentration of 10 μM. […] This was completed using one of two assays, depending on the kinase being examined: 1) IMAP Assay. A solution of 4× inhibitor, 4× substrate/ATP/metal solution and 2× kinase solution was prepared with assay buffer (20 mM HEPES, 0.01% Tween-20, 2 mM DTT, pH 7.4) and mixed, then incubated in 384-well black plates for 1 hour at room temperature. The IMAP binding reagent (IMAP Screening Express kit; Molecular Devices) was added to each well and incubated for 30 minutes. […] 2) Off-Chip Mobility Shift Assay (MSA). A solution of 4× inhibitor, 4× substrate/ATP/metal solution and 2× kinase solution was prepared with assay buffer (20 mM HEPES, 0.01% Triton X-100, 2 mM DTT, pH 7.5) and mixed, then incubated in 384-well plates for 1 or 5 hours depending on the kinase, at room temperature. Termination buffer (QuickScout Screening assist MSA; Carna Biosciences) was added to each well. The entire reaction mixture was then applied to a LabChip3000 system (Caliper Life Science), and the product and substrate peptide peaks were separated and quantified. […] The entire reaction mixture was then applied to a LabChip3000 system (Caliper Life Science), and the product and substrate peptide peaks were separated and quantified.

[9] = biological target: Erk1 (Homo sapiens (Human), UniProt P27361); assay: Carna kinome panel; format: biochemical; conditions: read-out: % Inhibition at 10 μM of the test compound
[10] = biological target: HER4 (Homo sapiens (Human), UniProt Q15303); assay: Carna kinome panel; format: biochemical; conditions: read-out: % Inhibition at 10 μM of the test compound
Sequence of HER4 (Q15303 26-1308): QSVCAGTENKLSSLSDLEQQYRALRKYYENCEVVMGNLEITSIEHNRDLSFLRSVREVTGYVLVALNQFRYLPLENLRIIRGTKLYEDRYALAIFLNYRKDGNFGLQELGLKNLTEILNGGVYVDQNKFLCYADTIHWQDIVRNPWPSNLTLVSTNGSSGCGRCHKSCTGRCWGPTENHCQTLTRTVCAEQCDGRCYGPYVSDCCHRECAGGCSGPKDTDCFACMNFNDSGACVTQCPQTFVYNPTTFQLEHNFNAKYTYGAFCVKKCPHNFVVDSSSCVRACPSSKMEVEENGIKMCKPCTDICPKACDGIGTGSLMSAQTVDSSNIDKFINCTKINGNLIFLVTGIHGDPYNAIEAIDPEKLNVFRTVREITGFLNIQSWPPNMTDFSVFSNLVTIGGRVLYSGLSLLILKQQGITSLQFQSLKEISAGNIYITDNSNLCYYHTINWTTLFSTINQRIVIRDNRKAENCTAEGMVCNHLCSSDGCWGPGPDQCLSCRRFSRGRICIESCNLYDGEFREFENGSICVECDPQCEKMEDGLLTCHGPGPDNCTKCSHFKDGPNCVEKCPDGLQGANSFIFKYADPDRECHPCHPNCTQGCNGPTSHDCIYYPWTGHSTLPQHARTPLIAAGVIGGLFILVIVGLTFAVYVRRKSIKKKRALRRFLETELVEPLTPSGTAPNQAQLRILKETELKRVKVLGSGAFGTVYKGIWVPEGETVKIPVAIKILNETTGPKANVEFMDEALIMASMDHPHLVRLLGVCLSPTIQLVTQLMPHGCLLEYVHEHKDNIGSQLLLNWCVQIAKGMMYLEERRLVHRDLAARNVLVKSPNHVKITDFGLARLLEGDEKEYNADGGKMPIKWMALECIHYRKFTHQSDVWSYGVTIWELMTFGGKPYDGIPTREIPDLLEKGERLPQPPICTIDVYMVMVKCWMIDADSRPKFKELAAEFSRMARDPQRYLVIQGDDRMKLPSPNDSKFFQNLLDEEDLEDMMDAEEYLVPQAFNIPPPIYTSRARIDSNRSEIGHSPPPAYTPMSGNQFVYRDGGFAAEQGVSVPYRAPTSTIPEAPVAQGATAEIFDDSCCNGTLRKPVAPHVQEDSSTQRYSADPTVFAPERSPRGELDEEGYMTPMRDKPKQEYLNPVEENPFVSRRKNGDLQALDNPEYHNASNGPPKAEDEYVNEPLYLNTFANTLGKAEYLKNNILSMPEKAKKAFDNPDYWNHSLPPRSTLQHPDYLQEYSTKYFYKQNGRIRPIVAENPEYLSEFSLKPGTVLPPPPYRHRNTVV

[11] = biological target: CK2α1/β (Homo sapiens (Human), UniProt P68400); assay: Carna kinome panel; format: biochemical; conditions: read-out: % Inhibition at 10 μM of the test compound
Method: as §1

[12] = biological target: EPHB3 (Homo sapiens (Human), UniProt P54753); assay: Carna kinome panel; format: biochemical; conditions: read-out: % Inhibition at 10 μM of the test compound
[13] = biological target: PKD2 (Homo sapiens (Human), UniProt Q9BZL6); assay: Carna kinome panel; format: biochemical; conditions: read-out: % Inhibition at 10 μM of the test compound
[14] = biological target: EPHA4 (Homo sapiens (Human), UniProt P54764); assay: Carna kinome panel; format: biochemical; conditions: read-out: % Inhibition at 10 μM of the test compound
[15] = biological target: AMPKα1/β1/γ1 (Homo sapiens (Human), UniProt Q13131); assay: Carna kinome panel; format: biochemical; conditions: read-out: % Inhibition at 10 μM of the test compound
[16] = biological target: KIT(V560G) (Homo sapiens (Human), UniProt P10721, V560G); assay: Carna kinome panel; format: biochemical; conditions: read-out: % Inhibition at 10 μM of the test compound
Sequence of KIT(V560G) (P10721 26-976 V560G): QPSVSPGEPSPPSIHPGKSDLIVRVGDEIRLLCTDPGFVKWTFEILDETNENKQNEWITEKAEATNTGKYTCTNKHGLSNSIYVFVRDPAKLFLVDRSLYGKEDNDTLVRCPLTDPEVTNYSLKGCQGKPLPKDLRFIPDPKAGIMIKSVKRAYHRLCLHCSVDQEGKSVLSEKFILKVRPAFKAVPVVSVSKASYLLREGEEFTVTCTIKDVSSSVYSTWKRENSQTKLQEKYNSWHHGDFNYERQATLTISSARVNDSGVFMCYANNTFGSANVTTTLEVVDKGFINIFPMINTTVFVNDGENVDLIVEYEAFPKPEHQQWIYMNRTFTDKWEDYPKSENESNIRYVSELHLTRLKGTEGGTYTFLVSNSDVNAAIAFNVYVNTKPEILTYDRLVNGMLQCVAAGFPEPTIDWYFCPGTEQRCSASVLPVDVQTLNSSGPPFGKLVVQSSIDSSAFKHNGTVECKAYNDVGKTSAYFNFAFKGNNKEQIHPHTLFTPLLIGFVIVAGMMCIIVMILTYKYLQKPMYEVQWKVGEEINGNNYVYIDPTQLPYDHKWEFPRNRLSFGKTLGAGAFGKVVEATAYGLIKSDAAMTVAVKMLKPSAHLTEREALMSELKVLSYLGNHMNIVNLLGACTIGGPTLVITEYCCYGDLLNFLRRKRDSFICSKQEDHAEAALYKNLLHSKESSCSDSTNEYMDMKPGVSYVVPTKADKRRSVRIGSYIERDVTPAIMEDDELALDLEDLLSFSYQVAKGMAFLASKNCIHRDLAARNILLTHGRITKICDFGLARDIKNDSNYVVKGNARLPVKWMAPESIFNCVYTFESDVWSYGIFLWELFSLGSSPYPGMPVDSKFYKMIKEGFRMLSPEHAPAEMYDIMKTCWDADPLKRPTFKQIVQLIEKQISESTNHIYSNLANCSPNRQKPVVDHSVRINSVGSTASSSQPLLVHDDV

[17] = biological target: RSK3 (Homo sapiens (Human), UniProt Q15349); assay: Carna kinome panel; format: biochemical; conditions: read-out: % Inhibition at 10 μM of the test compound
[18] = biological target: MELK (Homo sapiens (Human), UniProt Q14680); assay: Carna kinome panel; format: biochemical; conditions: read-out: % Inhibition at 10 μM of the test compound
[19] = biological target: FLT3 (Homo sapiens (Human), UniProt P36888); assay: Carna kinome panel; format: biochemical; conditions: read-out: % Inhibition at 10 μM of the test compound
[20] = biological target: BRAF(V600E)_Cascade (Homo sapiens (Human), UniProt P15056, V600E); assay: Carna kinome panel; format: biochemical; conditions: read-out: % Inhibition at 10 μM of the test compound
[21] = test system: MAP2K1_Cascade; assay: Carna kinome panel; format: biochemical
Method: as §1

[22] = biological target: RSK4 (Homo sapiens (Human), UniProt Q9UK32); assay: Carna kinome panel; format: biochemical; conditions: read-out: % Inhibition at 10 μM of the test compound
[23] = biological target: PLK3 (Homo sapiens (Human), UniProt Q9H4B4); assay: Carna kinome panel; format: biochemical; conditions: read-out: % Inhibition at 10 μM of the test compound
[24] = biological target: MAP2K7_Cascade (Homo sapiens (Human), UniProt O14733); assay: Carna kinome panel; format: biochemical; conditions: read-out: % Inhibition at 10 μM of the test compound
Sequence of MAP2K7_Cascade (O14733 whole entry): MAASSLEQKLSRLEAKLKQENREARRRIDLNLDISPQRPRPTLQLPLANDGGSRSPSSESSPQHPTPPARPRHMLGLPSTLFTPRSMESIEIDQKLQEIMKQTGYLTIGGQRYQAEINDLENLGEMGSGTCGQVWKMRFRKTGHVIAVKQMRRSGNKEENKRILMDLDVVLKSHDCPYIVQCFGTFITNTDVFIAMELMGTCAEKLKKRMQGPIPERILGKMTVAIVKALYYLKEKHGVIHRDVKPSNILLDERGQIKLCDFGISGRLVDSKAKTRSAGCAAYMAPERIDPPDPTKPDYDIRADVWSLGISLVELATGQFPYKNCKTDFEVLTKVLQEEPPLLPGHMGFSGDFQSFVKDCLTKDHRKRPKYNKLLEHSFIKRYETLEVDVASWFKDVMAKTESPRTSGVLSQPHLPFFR

[25] = biological target: BLK (Homo sapiens (Human), UniProt P51451); assay: Carna kinome panel; format: biochemical; conditions: read-out: % Inhibition at 10 μM of the test compound
[26] = biological target: TBK1 (Homo sapiens (Human), UniProt Q9UHD2); assay: Carna kinome panel; format: biochemical; conditions: read-out: % Inhibition at 10 μM of the test compound
[27] = biological target: DCAMKL2 (Homo sapiens (Human), UniProt Q8N568); assay: Carna kinome panel; format: biochemical; conditions: read-out: % Inhibition at 10 μM of the test compound
[28] = biological target: Erk2 (Homo sapiens (Human), UniProt P28482); assay: Carna kinome panel; format: biochemical; conditions: read-out: % Inhibition at 10 μM of the test compound
[29] = biological target: PKN1 (Homo sapiens (Human), UniProt Q16512); assay: Carna kinome panel; format: biochemical; conditions: read-out: % Inhibition at 10 μM of the test compound
[30] = biological target: MINK (Homo sapiens (Human), UniProt Q8N4C8); assay: Carna kinome panel; format: biochemical; conditions: read-out: % Inhibition at 10 μM of the test compound
[31] = biological target: TAK1-TAB1_Cascade (Homo sapiens (Human), UniProt O43318); assay: Carna kinome panel; format: biochemical; conditions: read-out: % Inhibition at 10 μM of the test compound
Sequence of TAK1-TAB1_Cascade (O43318 other isoform, or with tags, fused parts or gaps): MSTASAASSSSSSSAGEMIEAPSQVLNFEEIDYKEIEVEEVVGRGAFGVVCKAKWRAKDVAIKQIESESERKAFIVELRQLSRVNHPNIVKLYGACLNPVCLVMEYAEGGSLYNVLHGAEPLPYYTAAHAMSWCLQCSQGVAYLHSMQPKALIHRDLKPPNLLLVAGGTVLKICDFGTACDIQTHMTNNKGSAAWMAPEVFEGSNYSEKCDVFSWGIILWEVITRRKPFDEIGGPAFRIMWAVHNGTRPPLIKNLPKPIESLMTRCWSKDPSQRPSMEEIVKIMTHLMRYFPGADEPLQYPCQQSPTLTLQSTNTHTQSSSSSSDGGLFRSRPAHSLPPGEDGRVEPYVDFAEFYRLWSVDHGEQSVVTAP

[32] = biological target: NEK7 (Homo sapiens (Human), UniProt Q8TDX7); assay: Carna kinome panel; format: biochemical; conditions: read-out: % Inhibition at 10 μM of the test compound
[33] = biological target: DDR2 (Homo sapiens (Human), UniProt Q16832); assay: Carna kinome panel; format: biochemical; conditions: read-out: % Inhibition at 10 μM of the test compound

Sequence of FMS (P07333 20-972): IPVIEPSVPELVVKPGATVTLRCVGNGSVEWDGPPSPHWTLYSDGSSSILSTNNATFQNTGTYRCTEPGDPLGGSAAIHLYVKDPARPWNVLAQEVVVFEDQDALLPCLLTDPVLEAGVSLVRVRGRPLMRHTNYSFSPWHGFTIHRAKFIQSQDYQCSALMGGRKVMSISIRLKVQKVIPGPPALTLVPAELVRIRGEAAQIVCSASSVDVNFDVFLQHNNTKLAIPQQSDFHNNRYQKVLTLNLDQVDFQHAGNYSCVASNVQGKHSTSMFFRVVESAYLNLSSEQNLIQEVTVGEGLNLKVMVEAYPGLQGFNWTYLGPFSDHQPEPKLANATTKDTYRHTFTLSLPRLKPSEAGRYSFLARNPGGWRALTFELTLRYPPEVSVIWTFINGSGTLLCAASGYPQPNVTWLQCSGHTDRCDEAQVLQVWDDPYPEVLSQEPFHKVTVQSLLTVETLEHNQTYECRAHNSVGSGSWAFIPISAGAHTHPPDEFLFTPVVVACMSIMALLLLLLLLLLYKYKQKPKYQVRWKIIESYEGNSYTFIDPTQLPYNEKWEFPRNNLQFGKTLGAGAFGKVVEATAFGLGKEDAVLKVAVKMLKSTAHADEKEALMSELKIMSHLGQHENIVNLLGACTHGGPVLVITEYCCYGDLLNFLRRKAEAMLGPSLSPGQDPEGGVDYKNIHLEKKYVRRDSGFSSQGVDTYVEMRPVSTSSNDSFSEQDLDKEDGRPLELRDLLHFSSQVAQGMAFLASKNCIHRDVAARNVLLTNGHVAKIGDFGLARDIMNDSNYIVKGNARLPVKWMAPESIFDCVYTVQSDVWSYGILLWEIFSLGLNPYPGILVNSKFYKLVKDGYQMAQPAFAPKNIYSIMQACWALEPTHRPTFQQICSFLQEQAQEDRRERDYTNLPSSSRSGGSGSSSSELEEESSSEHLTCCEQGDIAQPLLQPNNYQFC

SMILES: CCC1(c2ccccc2)C2=C(CC(C)(C)CC2=O)Nc2ncsc21 (stereo not shown) [Compound 1, 9-Ethyl-6,6-dimethyl-9-phenyl-5,6,7,9-tetrahydrothiazolo[4,5-b]quinolin-8(4H)-one]
- inhibition at 10 µM [1]: 0.3%
- inhibition at 10 µM [2]: 2.8%
- inhibition at 10 µM [3]: 22.6%
- inhibition at 10 µM [4]: -1.4%
- inhibition at 10 µM [5]: -15.7%
- pIC50 [6]: 7.50
- inhibition at 10 µM ([6]; read-out: % Inhibition at 10 μM of the test compound): 98%
- inhibition at 10 µM [7]: 1.5%
- % Inhibition at 10 μM of the test compound [8]: −6.7%
- inhibition at 10 µM [9]: 5.6%
- inhibition at 10 µM [10]: -4%
- inhibition at 10 µM [11]: -3.7%
- inhibition at 10 µM [12]: -4.8%
- inhibition at 10 µM [13]: -13.8%
- inhibition at 10 µM [14]: 0%
- inhibition at 10 µM [15]: 7.6%
- inhibition at 10 µM [16]: -5.8%
- inhibition at 10 µM [17]: -4.9%
- inhibition at 10 µM [18]: 1.6%
- inhibition at 10 µM [19]: 2.9%
- inhibition at 10 µM [20]: 6.1%
- % Inhibition at 10 μM of the test compound [21]: −3.2%
- inhibition at 10 µM [22]: -4.6%
- inhibition at 10 µM [23]: 3.4%
- inhibition at 10 µM [24]: 2.8%
- inhibition at 10 µM [25]: 5%
- inhibition at 10 µM [26]: -5.3%
- inhibition at 10 µM [27]: -7.6%
- inhibition at 10 µM [28]: 0.5%
- inhibition at 10 µM [29]: 8.9%
- inhibition at 10 µM [30]: 1.5%
- inhibition at 10 µM [31]: 8%
- inhibition at 10 µM [32]: -3.9%
- inhibition at 10 µM [33]: 0.6%
